Data as given in patent publication US8765744B2, “Azaspirohexanones” (Boehringer Ingelheim International GmbH, priority 2010, dated 2014).

Target: 11β-HSD1 (Homo sapiens (Human), UniProt P28845)
Conditions: read-out: Inhibitory activity on 11β-HSD 1, IC50; human liver microsomes; 1 hour at 37° C.; NADPH 200 μM, cortisone 80 nM; HTRF cortisol detection
Description: The biological properties (inhibitory activity on 11β-hydroxysteroid dehydrogenase 1) of the new compounds may be investigated as follows:
Briefly, compounds are incubated for 1 hour at 37° C. in Tris buffer (20 mM tris, 5 mM EDTA, pH 6.0) containing NADPH (200 μM) and cortisone (80 nM). Cortisol generated in the reaction is then detected with a competitive immunoassay, involving two HTRF conjugates: cortisol linked to XL665 and anti-cortisol antibody labeled with Europium cryptate. The incubation period for detection reaction is typically 2 hours. […] The ratio of the two emission signals is then calculated (Em665*10000/Em615). […] Each assay also contains a calibration curve with cortisol to transform the fluorescent data into cortisol concentrations. Percent inhibition (% CTL) of each compound is determined relative to the carbenoxolone signal and IC50 curves are generated.

Chain of 11β-HSD1 (P28845 whole entry): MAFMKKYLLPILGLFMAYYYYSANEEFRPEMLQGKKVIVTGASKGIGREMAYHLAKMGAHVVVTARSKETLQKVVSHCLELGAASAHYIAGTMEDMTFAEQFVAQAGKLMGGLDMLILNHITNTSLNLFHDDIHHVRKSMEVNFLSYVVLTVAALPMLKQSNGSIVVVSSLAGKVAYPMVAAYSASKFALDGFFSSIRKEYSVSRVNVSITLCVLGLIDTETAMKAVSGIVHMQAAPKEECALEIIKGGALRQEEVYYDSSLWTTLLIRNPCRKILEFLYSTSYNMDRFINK

| IC50 [µM] | SMILES |
| --- | --- |
| > 10 | C[C@@H](c1ccc(-c2ccn(C)c(=O)c2)cc1)N1CCC2(CCC3(CC2)OCC(C)(C)CO3)OC1=O [Example 16, 12,12-Dimethyl-3-{(S)-1-[4-(1-methyl-2-oxo-1,2-dihydro-pyridin-4-yl)-phenyl]-ethyl}-1,10,14-trioxa-3-aza-dispiro[5.2.5.2]hexadecan-2-one] |
| > 10 | C[C@@H](c1ccc(-c2ccc(C(=O)N(C)C)nc2)cc1)N1CCC2(CCC3(CC2)OCC(C)(C)CO3)OC1=O [Example 17, 5-{4-[(S)-1-(12,12-Dimethyl-2-oxo-1,10,14-trioxa-3-aza-dispiro[5.2.5.2]hexadec-3-yl)-ethyl]-phenyl}-pyridine-2-carboxylic acid dimethylamide] |
